Calls of active or inactive are those of the source. The calls are words filed in the database; no cut-off is given here.
What was measured:
[1] = target: T1, Prostaglandin G/H synthase 1 (Ovis aries) (UniProt P05979); assay: Inhibition of ovine COX1 at 50 uM using arachidonic acid as substrate by colorimetric assay relative to control
T1 sequence (whole entry): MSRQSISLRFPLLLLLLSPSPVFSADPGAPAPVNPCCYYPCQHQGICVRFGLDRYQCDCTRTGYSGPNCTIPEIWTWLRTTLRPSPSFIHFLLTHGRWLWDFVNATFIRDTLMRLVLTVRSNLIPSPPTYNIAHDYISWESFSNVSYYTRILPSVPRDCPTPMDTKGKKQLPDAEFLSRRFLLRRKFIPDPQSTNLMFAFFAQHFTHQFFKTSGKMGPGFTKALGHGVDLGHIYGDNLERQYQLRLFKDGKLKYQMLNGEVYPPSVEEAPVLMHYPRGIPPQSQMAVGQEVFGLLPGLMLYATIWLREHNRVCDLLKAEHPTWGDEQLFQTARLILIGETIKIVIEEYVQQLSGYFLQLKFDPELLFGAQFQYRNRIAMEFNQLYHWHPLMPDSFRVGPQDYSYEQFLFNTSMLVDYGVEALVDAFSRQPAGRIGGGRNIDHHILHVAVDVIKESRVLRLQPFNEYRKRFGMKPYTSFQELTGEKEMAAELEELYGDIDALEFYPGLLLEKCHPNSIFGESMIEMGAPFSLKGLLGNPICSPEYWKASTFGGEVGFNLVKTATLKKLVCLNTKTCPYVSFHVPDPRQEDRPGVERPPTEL

Platelet = assay: Antiplatelet activity in human platelet rich plasma assessed as inhibition of arachidonic acid-induced platelet aggregation preincubated for 2 mins followed by arachidonic acid addition by turbidimetric method; assay type: functional, cell-based
[2] = Hemolytic activity in erythrocytes (unknown origin) at 100 uM after 3 hrs by spectrophotometric analysis; assay type: ADME, cell-based, Erythrocyte; conditions: read-out: Activity
[3] = Genotoxicity in Escherichia coli PQ35 at 500 uM after overnight incubation by SOS chromotest; assay type: toxicity
[4] = Genotoxicity in Escherichia coli PQ37 at 500 uM after overnight incubation by SOS chromotest; assay type: toxicity
RPMI-8226 [5] = assay: Potentiation of bortezomib-induced cytotoxicity against human RPMI8226 cells assessed as reduction in cell viability at 42 nM after 48 hrs in presence of bortezomib by CCK8 assay; assay type: functional
NCI-H929 [6] = assay: Induction of apoptosis in human NCI-H929 cells assessed as late apoptotic cells at 42 nM after 48 hrs by Annexin-V/propidium iodide staining based flow cytometric method (reference value: 0.23%); assay type: functional
NCI-H929 [7] = assay: Induction of apoptosis in human NCI-H929 cells assessed as viable cells at 42 nM after 48 hrs by Annexin-V/propidium iodide staining based flow cytometric method (reference value: 82.6%); assay type: functional; conditions: NCI-H929, 48 h, read-out: Activity
NCI-H929 [8] = assay: Induction of apoptosis in human NCI-H929 cells assessed as viable cells at 42 nM after 48 hrs in presence of bortezomib by Annexin-V/propidium iodide staining based flow cytometric method (reference value: 82.6%); assay type: functional; conditions: NCI-H929, 48 h, read-out: Activity
RPMI-8226 [9] = assay: Induction of apoptosis in human RPMI8226 cells assessed as early apoptotic cells at 42 nM after 48 hrs in presence of bortezomib by Annexin-V/propidium iodide staining based flow cytometric method (reference value: 1.05%); assay type: functional
RPMI-8226 [10] = assay: Cell cycle arrest in human RPMI8226 cells assessed as accumulation at G0/G1 phase at 42 nM in presence of bortezomib after 48 hrs by propidium iodide/RNase staining based flow cytometric method relative to bortezomib; assay type: functional

C=Cc1onc(-c2ccc(OC)cc2)c1-c1ccc(OC)cc1
inhibition [1]: 100%
IC50 (Platelet): 0.63 µM
hemolysis at 3 h, 100 µM [2]: 0%
Activity [3]: Non-Toxic
Activity [4]: Non-Toxic
Activity (RPMI-8226 [5]): 66%
Activity (NCI-H929 [6]): 0.11%
viability at 0.042 µM (NCI-H929 [7]): 83%
viability at 0.042 µM (NCI-H929 [8]): 39.2%
Activity (RPMI-8226 [9]): 9.68%
Activity (RPMI-8226 [10]): Active

Source: ChEMBL document CHEMBL4422618, “Translational impact of novel widely pharmacological characterized mofezolac-derived COX-1 inhibitors combined with bortezomib on human multiple myeloma cell lines viability” (Eur J Med Chem, 2019)
